From PubChem BioAssay (NCI)
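Results reflect a 48-hour exposure of cells in 96-well plates to compound at five concentrations. The concentration for 50% growth inhibition is given as GI50. TGI: total growth inhibition.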

Assays:
Assay in all cases: DTP human tumour cell line panel, 48 h
OVCAR-5 ovarian = test system: OVCAR-5 ovarian
HOP-62 NSCLC = test system: HOP-62 NSCLC
HL-60(TB) leukemia = test system: HL-60(TB) leukemia
OVCAR-8 ovarian = test system: OVCAR-8 ovarian
MDA-MB-435 = test system: MDA-MB-435
HCT-15 colon = test system: HCT-15 colon
SNB-75 CNS = test system: SNB-75 CNS
SF-539 CNS = test system: SF-539 CNS
DMS 114 small cell lung = test system: DMS 114 small cell lung
KM20L2 colon = test system: KM20L2 colon

Structure (SMILES)	GI50 (OVCAR-5 ovarian) [µM]	TGI (OVCAR-5 ovarian) [µM]	GI50 (HOP-62 NSCLC) [µM]	TGI (HOP-62 NSCLC) [µM]	GI50 (HL-60(TB) leukemia) [µM]	TGI (HL-60(TB) leukemia) [µM]	GI50 (OVCAR-8 ovarian) [µM]	TGI (OVCAR-8 ovarian) [µM]	GI50 (MDA-MB-435) [µM]	TGI (MDA-MB-435) [µM]	GI50 (HCT-15 colon) [µM]	TGI (HCT-15 colon) [µM]	GI50 (SNB-75 CNS) [µM]	TGI (SNB-75 CNS) [µM]	GI50 (SF-539 CNS) [µM]	TGI (SF-539 CNS) [µM]	TGI (DMS 114 small cell lung) [µM]	TGI (KM20L2 colon) [µM]	GI50 (KM20L2 colon) [µM]
CCN(Cc1ccc(Cl)cc1)c1ccc(CO)c(Cl)c1	0.258	2.04	1.24	13.9	3.17	20.8	3.62	21	11	24.5	3.52	19.8	3.4	17.6	11.9	26.7			
O=C1CC(O)CC(=O)C1=C(O)CCCCCCCCCCc1ccccc1 (centres undefined)		> 100		> 100		59.2		> 100						> 100		> 100	> 100	> 100	
O=C1N(C2CCCCC2)CC12CCCCC2				> 100		> 100		> 100				> 100		> 100		> 100	> 100	> 100	
CC1=C(c2ccccc2)C(c2ccccc2)=C(c2ccccc2)C2(c3ccccc3)C(=O)C(C)CN12 (centres undefined)		> 100		> 100				59.2				> 100		64.5		> 100		> 100	
N.N.N.N.N.NC(=O)c1nn[n-]n1.[Cl-].[Co+3]	> 100	> 100	> 100	> 100	> 100	> 100	> 100	> 100			> 100	> 100	> 100	> 100	> 100	> 100		> 100	> 100
CC1(C)O[C@H]2[C@H](O)C[C@](O)(CO)C[C@H]2O1		> 100						> 100				> 100		> 100		> 100	> 100	> 100	
O=c1[nH]nnc2c1ncn2C1OC(CO)C(O)C1O (centres undefined)	74.9	> 100	10.7	> 100	1.39	83.3	4.73	> 100	14.2	> 100	8.04	> 100	0.99	> 100	14.5	> 100			
CCCCCCCCNc1cc2c3c(c1)CCCN3CCC2	3.88	17.5	4.04	18.3	0.33	1.85	1.87	20.3	0.951	11.7	10.5	38.5	1.47	10.8	2.81	17			
N.N.N.N.[Co+3].[N-]=[N+]=[N-].[N-]=[N+]=[N-].[N-]=[N+]=[N-]	> 100	> 100	> 100	> 100	61.5	> 100	> 100	> 100			> 100	> 100	> 100	> 100	26.6	> 100		> 100	> 100
CCOC(=O)N1CCN(/[N+]([O-])=N/Oc2ccc([N+](=O)[O-])cc2[N+](=O)[O-])CC1	2.16	9.09	3.14	13.6	0.0761	0.201	3.49	12.9	0.315	2.98	0.346	1.46	4.92	18.8	0.424	20.9			
CCc1ccccc1NC(=O)C1=C(C)NC(C)=C(C(=O)Nc2ccccc2CC)C1c1ccccc1Cl		> 100		> 100		> 100		> 100						> 100		> 100	> 100	> 100	
COc1ccc(C(=S)N2CCN(c3cccc(C)c3)CC2)cc1OC	> 100	> 100	5.53	29.4	1.83	> 100	8.47	> 100	1.09	4.04	3.77	> 100	2.16	11.9	5.1	> 100			
Oc1c(-c2nnc(-c3ccccc3Cl)o2)sc2nnc(-c3ccccc3)c(-c3ccccc3)c12	7.48	> 100	4.99	> 100	4.16	> 100	3.72	> 100	4.26	> 100	0.813	> 100	6.94	> 100	4.45	70.4			
O=C(Oc1cccc(F)c1OC(=O)c1cccc(O)c1)c1cccc(O)c1	> 100	> 100	50.7	> 100	4.28	72.3	22.8	> 100	66.7	> 100	15.3	> 100	35.5	> 100	16.9	> 100			
CCOC(=O)Nc1ccc2c(c1)/C(=N\NC(N)=S)c1ccccc1-2	16.8	59.4	4.9	22.6	4.24	16.1	3.77	13.8	3.58	18.3	3.25	18.4	4.19	18.2	3.75	17.3			
COc1ccc2[nH]cc(-c3ccc(-c4c[nH]c5ccc(OC)cc45)s3)c2c1	6.43	18.7	4.67	10.5	1.59	6.27	5.86	> 49.9	8.32	> 41.4	2.73	8.72	7.12	19.5	3.41	10.7			
